Values of other authors in patent US20230364078A1, “METHOD OF PREPARING NANOPARTICLES COMPRISING POORLY WATER SOLUBLE DRUGS FOR TREATING HEPATITIS” (priority 2022, published 2023).

Columns and labels:
[1] = solvent ethanol
[2] = parameters: key: Class 1 has high solubility and permeability; Class 2 has low solubility but good permeability; Class 3 has high solubility but low permeability; Class 4 has low solubility and permeability; details: water solubility and intestinal permeability
[3] = non-nanosized drug

solubility in water [3] | Compound | solubility to ethanol [1] [mg/mL] | BCS class [2]
very little soluble in water | C=C[C@@H]1C[C@]1(NC(=O)[C@@H]1C[C@@H](Oc2ncc(OC)c3ccc(Cl)cc23)CN1C(=O)[C@@H](NC(=O)OC(C)(C)C)C(C)(C)C)C(=O)NS(=O)(=O)C1CC1 [Formula 3, Asunaprevir] | 100 | 2
insoluble in water | COC(=O)N[C@H](C(=O)N1CCC[C@H]1c1ncc(-c2ccc(-c3ccc(-c4cnc([C@@H]5CCCN5C(=O)[C@@H](NC(=O)OC)C(C)C)[nH]4)cc3)cc2)[nH]1)C(C)C [Formula 1, Daclatasvir] | 148 | 2
– | COC[C@H]1C[C@@H](c2nc(-c3ccc4c(c3)COc3cc5c(ccc6nc([C@@H]7CC[C@H](C)N7C(=O)[C@@H](NC(=O)OC)C(C)C)[nH]c65)cc3-4)c[nH]2)N(C(=O)[C@H](NC(=O)OC)c2ccccc2)C1 [Formula 4, Velpatasvir] | 30 | 4

Compound | solubility in water [3] | solubility to ethanol [1] [mg/mL] | BCS class [2]
C=C[C@@H]1C[C@]1(NC(=O)[C@@H]1C[C@@H]2CN1C(=O)[C@H](C(C)(C)C)NC(=O)O[C@@H]1C[C@H]1CCCCCc1nc3ccc(OC)cc3nc1O2)C(=O)NS(=O)(=O)C1CC1 [Formula 2, Grazoprevir] | very little soluble in water | 15 | 2
